Reference: patent US20170000133A1, “BENZOXABOROLE FUNGICIDES” (SYNGENTA PARTICIPATIONS AG, priority 2013, published 2017)

Legend:
[1] = tested on: Glomerella lagenarium (Colletotrichum lagenarium); assay: Glomerella lagenarium (Colletotrichum lagenarium) / liquid culture (anthracnose); assay type: cell-based; conditions: Colletotrichum orbiculare, PDB potato dextrose broth, 24° C., 3-4 days after application, read-out: disease control (inhibition of growth measured photometrically)
Procedure: 11. Glomerella lagenarium (Colletotrichum lagenarium)/Liquid Culture (Anthracnose): Conidia of the fungus from cryogenic storage were directly mixed into nutrient broth (PDB potato dextrose broth). After placing a DMSO solution of test compound into a 96-well microtiter plate at an application rate of 200 ppm, the nutrient broth containing the fungal spores was added. The test plates were incubated at 24° C. and the inhibition of growth was measured photometrically 3-4 days after application.

[2] = tested on: Pythium ultimum; assay: Pythium ultimum / liquid culture (seedling damping off); assay type: cell-based; conditions: Globisporangium ultimum; 200 ppm; potato dextrose broth, 24° C., 2-3 days after application; read-out: disease control (inhibition of growth determined photometrically)
[3] = tested on: Gaeumannomyces graminis; assay: Gaeumannomyces graminis / liquid culture (take-all of cereals); assay type: cell-based; conditions: PDB potato dextrose broth, 24° C., 4-5 days after application, read-out: disease control (inhibition of growth determined photometrically)
Procedure: 14. Gaeumannomyces graminis/Liquid Culture (Take-all of Cereals): Mycelial fragments of the fungus from cryogenic storage were directly mixed into nutrient broth (PDB potato dextrose broth). After placing a DMSO solution of test compound into a 96-well microtiter plate at an application rate of 200 ppm, the nutrient broth […], containing the fungal spores is added. The test plates were incubated at 24° C. and the inhibition of growth was determined photometrically 4-5 days after application.

[4] = tested on: Monographella nivalis (Microdochium nivale); assay: Monographella nivalis (Microdochium nivale) / liquid culture (foot rot cereals); assay type: cell-based; conditions: PDB potato dextrose broth, 24° C., 4-5 days after application, read-out: disease control (inhibition of growth determined photometrically)
[5] = tested on: Plasmopara viticola; assay: whole plant or invertebrate; assay type: in vivo; conditions: foliar, read-out: disease control
[6] = tested on: Mycosphaerella arachidis (Cercospora arachidicola); assay: Mycosphaerella arachidis (Cercospora arachidicola) / liquid culture (early leaf spot); assay type: cell-based; conditions: PDB potato dextrose broth, 24° C., 4-5 days after application, read-out: disease control (inhibition of growth determined photometrically)
Procedure: 12. Mycosphaerella arachidis (Cercospora arachidicola)/Liquid Culture (Early Leaf Spot): Conidia of the fungus from cryogenic storage were directly mixed into nutrient broth (PDB potato dextrose broth). After placing a DMSO solution of test compound into a 96-well microtiter plate at an application rate of 200 ppm, the nutrient broth containing the fungal spores was added. The test plates were incubated at 24° C. and the inhibition of growth was determined photometrically 4-5 days after application.

[7] = tested on: Thanatephorus cucumeris (Rhizoctonia solani); assay: Thanatephorus cucumeris (Rhizoctonia solani) / liquid culture (foot rot, damping-off); assay type: cell-based; conditions: PDB potato dextrose broth, 24° C., 3-4 days after application, read-out: disease control (inhibition of growth determined photometrically)
Procedure: 17. Thanatephorus cucumeris (Rhizoctonia solani)/Liquid Culture (Foot Rot, Damping-Off): Mycelia fragments of a newly grown liquid culture of the fungus were directly mixed into nutrient broth (PDB potato dextrose broth). After placing a DMSO solution of the test compounds into a 96-well microtiter plate at an application rate of 200 ppm, the nutrient broth containing the fungal material was added. The test plates were incubated at 24° C. and the inhibition of growth was determined photometrically 3-4 days after application.

[8] = tested on: Mycosphaerella graminicola (Septoria tritici); assay: Mycosphaerella graminicola (Septoria tritici) / liquid culture (Septoria blotch); assay type: cell-based; conditions: Zymoseptoria tritici, PDB potato dextrose broth, 24° C., 4-5 days after application, read-out: disease control (inhibition of growth determined photometrically)
Procedure: 13. Mycosphaerella graminicola (Septoria tritici)/Liquid Culture (Septoria Blotch): Conidia of the fungus from cryogenic storage were directly mixed into nutrient broth (PDB potato dextrose broth). After placing a DMSO solution of test compound into a 96-well microtiter plate at an application rate of 200 ppm, the nutrient broth containing the fungal spores was added. The test plates were incubated at 24° C. and the inhibition of growth was determined photometrically 4-5 days after application.

CC(=O)c1sc(NC(=O)c2cc3c(cc2Cl)COB3O)nc1C [Compound 158]
≥ 80%: inhibition at 200 ppm [1] | inhibition at 200 ppm [2]

O=C(OCc1ccc(C(F)(F)F)cc1Cl)c1ccc2c(c1)B(O)OC2 [Compound 326]
≥ 80%: inhibition at 200 ppm [3] | inhibition at 200 ppm [1] | inhibition at 200 ppm [4]

O=C(OC1CCOCC1)c1ccc2c(c1)B(O)OC2 [Compound 366]
≥ 80%: pest or weed control at 200 ppm [5] | inhibition at 200 ppm [2] | inhibition at 200 ppm [6] | inhibition at 200 ppm [7]

CC(F)COC(=O)c1cc2c(cc1F)COB2O (stereo not shown) [Compound 396]
≥ 80%: pest or weed control at 200 ppm [5] | inhibition at 200 ppm [2] | inhibition at 200 ppm [6] | inhibition at 200 ppm [7] | inhibition at 200 ppm [4]

O=C(OCc1ncc(C(F)(F)F)cc1Cl)c1ccc2c(c1)B(O)OC2 [Compound 347]
≥ 80%: inhibition at 200 ppm [3] | inhibition at 200 ppm [2] | inhibition at 200 ppm [6]

C[Si](C)(C)/C=C/COC(=O)c1ccc2c(c1)B(O)OC2 [Compound 342]
≥ 80%: inhibition at 200 ppm [3] | inhibition at 200 ppm [8] | pest or weed control at 200 ppm [5] | inhibition at 200 ppm [2] | inhibition at 200 ppm [6] | inhibition at 200 ppm [7] | inhibition at 200 ppm [4]

O=C(OCc1ccc(C(F)(F)F)nc1)c1cc2c(cc1F)COB2O [Compound 405]
≥ 80%: inhibition at 200 ppm [2] | inhibition at 200 ppm [6] | inhibition at 200 ppm [7] | inhibition at 200 ppm [4]

O=C(OCc1ncc(C(F)(F)F)cc1Cl)c1cc2c(cc1Cl)COB2O [Compound 221]
≥ 80%: inhibition at 200 ppm [3] | inhibition at 200 ppm [1] | inhibition at 200 ppm [2] | inhibition at 200 ppm [4]

O=C(OCCCF)c1ccc2c(c1)B(O)OC2 [Compound 330]
≥ 80%: inhibition at 200 ppm [3] | pest or weed control at 200 ppm [5] | inhibition at 200 ppm [2] | inhibition at 200 ppm [6] | inhibition at 200 ppm [7] | inhibition at 200 ppm [4]

O=C(NCc1ccccc1)c1ccc2c(c1)B(O)OC2 [Compound 261]
≥ 80%: pest or weed control at 200 ppm [5] | inhibition at 200 ppm [2] | inhibition at 200 ppm [6]

Cc1csc(NC(=O)c2ccc3c(c2)B(O)OC3)n1 [Compound 298]
≥ 80%: pest or weed control at 200 ppm [5] | inhibition at 200 ppm [2] | inhibition at 200 ppm [6]

O=C(OC1CCOCC1)c1cc2c(cc1Cl)COB2O [Compound 237]
≥ 80%: inhibition at 200 ppm [1] | inhibition at 200 ppm [2] | inhibition at 200 ppm [4]

COC(=O)C(OC(=O)c1cc2c(cc1Cl)COB2O)c1ccccc1 (stereo not shown) [Compound 223]
≥ 80%: inhibition at 200 ppm [1] | pest or weed control at 200 ppm [5] | inhibition at 200 ppm [2] | inhibition at 200 ppm [4]

O=C(OCCF)c1cc2c(cc1F)COB2O [Compound 423]
≥ 80%: inhibition at 200 ppm [3] | inhibition at 200 ppm [8] | pest or weed control at 200 ppm [5] | inhibition at 200 ppm [2] | inhibition at 200 ppm [6] | inhibition at 200 ppm [7] | inhibition at 200 ppm [4]

O=C(OCC1CCCO1)c1ccc2c(c1)B(O)OC2 (stereo not shown) [Compound 337]
≥ 80%: pest or weed control at 200 ppm [5] | inhibition at 200 ppm [2] | inhibition at 200 ppm [6] | inhibition at 200 ppm [7] | inhibition at 200 ppm [4]

COCCOC(=O)c1cc2c(cc1Cl)COB2O [Compound 224]
≥ 80%: inhibition at 200 ppm [3] | inhibition at 200 ppm [1] | inhibition at 200 ppm [2] | inhibition at 200 ppm [4]

COCCOC(=O)c1ccc2c(c1)B(O)OC2 [Compound 350]
≥ 80%: inhibition at 200 ppm [2] | inhibition at 200 ppm [6] | inhibition at 200 ppm [7] | inhibition at 200 ppm [4]

Cc1ccccc1NC(=O)c1ccc2c(c1)B(O)OC2 [Compound 280]
≥ 80%: inhibition at 200 ppm [1] | inhibition at 200 ppm [2]

O=C(OC(CF)CF)c1ccc2c(c1)B(O)OC2 [Compound 311]
≥ 80%: pest or weed control at 200 ppm [5] | inhibition at 200 ppm [2] | inhibition at 200 ppm [6] | inhibition at 200 ppm [7] | inhibition at 200 ppm [4]

O=C(OC(CF)CF)c1cc2c(cc1Cl)COB2O [Compound 189]
≥ 80%: inhibition at 200 ppm [3] | inhibition at 200 ppm [1] | inhibition at 200 ppm [2] | inhibition at 200 ppm [4]

CCCCSCCOC(=O)c1ccc2c(c1)B(O)OC2 [Compound 324]
≥ 80%: inhibition at 200 ppm [3] | inhibition at 200 ppm [8] | pest or weed control at 200 ppm [5] | inhibition at 200 ppm [2] | inhibition at 200 ppm [6] | inhibition at 200 ppm [7] | inhibition at 200 ppm [4]

C[Si](C)(C)CCCOC(=O)c1cc2c(cc1F)COB2O [Compound 377]
≥ 80%: inhibition at 200 ppm [3] | inhibition at 200 ppm [8] | inhibition at 200 ppm [2] | inhibition at 200 ppm [6] | inhibition at 200 ppm [7] | inhibition at 200 ppm [4]

COc1ccc(CNC(=O)c2ccc3c(c2)B(O)OC3)cc1 [Compound 271]
≥ 80%: pest or weed control at 200 ppm [5] | inhibition at 200 ppm [2] | inhibition at 200 ppm [6]

O=C(OCc1ccco1)c1cc2c(cc1F)COB2O [Compound 398]
≥ 80%: pest or weed control at 200 ppm [5] | inhibition at 200 ppm [2] | inhibition at 200 ppm [6] | inhibition at 200 ppm [7] | inhibition at 200 ppm [4]

Cc1ccccc1NC(=O)c1cc2c(cc1Cl)COB2O [Compound 112]
≥ 80%: inhibition at 200 ppm [1]

O=C(OCCCCc1ccc2ccccc2c1)c1cc2c(cc1F)COB2O [Compound 415]
≥ 80%: inhibition at 200 ppm [3] | inhibition at 200 ppm [6] | inhibition at 200 ppm [7] | inhibition at 200 ppm [4]

O=C(OCC1CCSCC1)c1ccc2c(c1)B(O)OC2 [Compound 319]
≥ 80%: inhibition at 200 ppm [8] | inhibition at 200 ppm [2] | inhibition at 200 ppm [6] | inhibition at 200 ppm [7] | inhibition at 200 ppm [4]

O=C(NCCOc1ccccc1)c1ccc2c(c1)B(O)OC2 [Compound 267]
≥ 80%: inhibition at 200 ppm [2] | inhibition at 200 ppm [6]

O=C(OCCCCc1ccc2ccccc2c1)c1ccc2c(c1)B(O)OC2 [Compound 353]
≥ 80%: inhibition at 200 ppm [3] | inhibition at 200 ppm [6]

O=C(OCc1cccc2ccccc12)c1ccc2c(c1)B(O)OC2 [Compound 333]
≥ 80%: inhibition at 200 ppm [8] | inhibition at 200 ppm [2] | inhibition at 200 ppm [6] | inhibition at 200 ppm [4]
